US20190085024A1, “Alpha-Ketoamide Inhibitors Of Cysteine Proteases” (Phelix Therapeutics, priority 2017, published 2019)

How the values were obtained:
Cathepsin L = Cathepsin L (Homo sapiens, UniProt P07711); assay: Cathepsin L enzyme assay; type: biochemical; conditions: Ki by Morrison equation; pH 5.5, substrate Z-Phe-Arg-Amc; read-out: Cat L
Excerpt: Two wells contained DMSO only for controls.
Velocity was converted to μM/sec.

Calpain = Calpain enzyme assay; type: biochemical; conditions: Ki by Morrison equation; pH 7.5, 5 mM CaCl2
[1] = test system: EBOV WT (Ebola Wild Type); assay: microbe, parasite or virus in culture; type: cell-based; conditions: Zaire ebolavirus, read-out: EBOV WT (μM) (Ebola Wild Type)
MERS WT = assay: microbe, parasite or virus in culture; type: cell-based; conditions: Middle East respiratory syndrome-related coronavirus, read-out: MERS WT (μM)
Cathepsin B = Cathepsin B (Homo sapiens, UniProt P07858); assay: Cathepsin B enzyme assay; conditions: Cat B (μM), Ki by Morrison equation; pH 6.0, substrate Z-Phe-Arg-Amc
Cat S = Cat S (Homo sapiens, UniProt P25774); assay: Cat S inhibition; type: biochemical
Chain of Cat S (P25774 115-331): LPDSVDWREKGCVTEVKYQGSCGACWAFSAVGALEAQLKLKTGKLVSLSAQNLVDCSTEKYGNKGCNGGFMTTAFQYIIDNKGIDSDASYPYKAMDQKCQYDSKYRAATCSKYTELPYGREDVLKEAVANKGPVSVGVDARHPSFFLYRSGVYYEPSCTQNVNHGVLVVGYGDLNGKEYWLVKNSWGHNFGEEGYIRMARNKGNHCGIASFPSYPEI

Chain of Cathepsin L (P07711 114-333, species assumed): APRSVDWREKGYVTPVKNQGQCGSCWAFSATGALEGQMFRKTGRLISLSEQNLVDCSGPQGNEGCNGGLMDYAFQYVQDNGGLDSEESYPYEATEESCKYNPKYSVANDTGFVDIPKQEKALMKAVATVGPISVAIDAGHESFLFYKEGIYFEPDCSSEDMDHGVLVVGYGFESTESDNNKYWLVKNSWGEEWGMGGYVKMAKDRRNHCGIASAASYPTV

SMILES	Ki (Cathepsin L) [nM]	Ki (Calpain) [nM]	IC50 [1] [µM]	IC50 (MERS WT) [µM]	Ki (Cathepsin B) [µM]	Ki (Cat S) [nM]
CC(C)CC(NC(=O)Cc1ccccc1)C(=O)NC(C)C(=O)C(=O)NC(C)C(=O)NC(C)(C)C(N)=O (stereo not shown) [PHELIX183, N-(4-((1-((1-amino-2-methyl-1-oxopropan-2-yl)amino)-1-oxopropan-2-yl)amino)-3,4-dioxobutan-2-yl)-4-methyl-2-(2-phenylacetamido)pentanamide]	195	153	29.1	407	7.74	–
C=CCOCC(NC(=O)C(=O)C(COCC=C)NC(=O)C(CC(C)C)NC(=O)OCc1ccccc1)C(=O)NC(Cc1ccc2ccccc2c1)C(N)=O (stereo not shown) [PHELIX228, benzyl (1-((1-(allyloxy)-4-((3-(allyloxy)-1-((1-amino-3-(naphthalen-2-yl)-1-oxopropan-2-yl)amino)-1-oxopropan-2-yl)amino)-3,4-dioxobutan-2-yl)amino)-4-methyl-1-oxopentan-2-yl)carbamate]	0.08	25.3	3.02	–	0.276	–
CC(C)CC(=O)NC(Cc1ccccc1)C(=O)NC(C)C(=O)C(=O)NC(Cc1ccccc1)C(=O)NC(C)(C)C(N)=O (stereo not shown) [PHELIX235, N-(1-((1-amino-2-methyl-1-oxopropan-2-yl)amino)-1-oxo-3-phenylpropan-2-yl)-3-(2-(3-methylbutanamido)-3-phenylpropanamido)-2-oxobutanamide]	236	> 10000	–	–	0.644	28.9
CCCCC(=O)NC(Cc1ccccc1)C(=O)NC(C)C(=O)C(=O)NC(Cc1ccccc1)C(=O)NC(C)(C)C(N)=O (stereo not shown) [PHELIX236, N-(1-((4-((1-((1-amino-2-methyl-1-oxopropan-2-yl)amino)-1-oxo-3-phenylpropan-2-yl)amino)-3,4-dioxobutan-2-yl)amino)-1-oxo-3-phenylpropan-2-yl)pentanamide]	1720	> 10000	–	–	> 10	260
CC(NC(=O)C(Cc1ccccc1)NC(=O)Cc1ccccc1)C(=O)C(=O)NC(Cc1ccc(-c2ccccc2)cc1)C(=O)NC(C)(C)C(N)=O (stereo not shown) [PHELIX241, N-(3-([1,1′-biphenyl]-4-yl)-1-((1-amino-2-methyl-1-oxopropan-2-yl)amino)-1-oxopropan-2-yl)-2-oxo-3-(3-phenyl-2-(2-phenylacetamido)propanamido)butanamide]	1360	> 10000	–	–	> 10	2740
CCCCC(NC(=O)C(=O)C(C)NC(=O)C(Cc1ccccc1)NC(=O)Cc1ccccc1)C(=O)NC(C)(C)C(N)=O (stereo not shown) [PHELIX242, N-(1-amino-2-methyl-1-oxopropan-2-yl)-2-(2-oxo-3-(3-phenyl-2-(2-phenylacetamido)propanamido)butanamido)hexanamide]	7520	> 10000	–	–	> 10	555
CC(NC(=O)C(Cc1ccccc1)NC(=O)Cc1ccccc1)C(=O)C(=O)NC(CC1CCCCC1)C(=O)NC(Cc1ccc(-c2ccccc2)cc1)C(N)=O (stereo not shown) [PHELIX259, N-(1-((3-([1,1′-biphenyl]-4-yl)-1-amino-1-oxopropan-2-yl)amino)-3-cyclohexyl-1-oxopropan-2-yl)-2-oxo-3-(3-phenyl-2-(2-phenylacetamido)propanamido)butanamide]	1.93	> 10000	–	1.1	> 10	–
CC(NC(=O)C(Cc1ccccc1)NC(=O)Cc1ccccc1)C(=O)C(=O)NC(CC1CC1)C(=O)NC(Cc1ccc(-c2ccccc2)cc1)C(N)=O (stereo not shown) [PHELIX260, N-(1-((3-([1,1′-biphenyl]-4-yl)-1-amino-1-oxopropan-2-yl)amino)-3-cyclopropyl-1-oxopropan-2-yl)-2-oxo-3-(3-phenyl-2-(2-phenylacetamido)propanamido)butanamide]	0.27	> 10000	–	1.81	0.0178	–
CC(NC(=O)C(Cc1ccccc1)NC(=O)Cc1ccccc1)C(=O)C(=O)NC(Cc1ccc(C(F)(F)F)cc1)C(=O)NC(Cc1ccc(-c2ccccc2)cc1)C(N)=O (stereo not shown) [PHELIX261, N-(1-((3-([1,1′-biphenyl]-4-yl)-1-amino-1-oxopropan-2-yl)amino)-1-oxo-3-(4-(trifluoromethyl)phenyl)propan-2-yl)-2-oxo-3-(3-phenyl-2-(2-phenylacetamido)propanamido)butanamide]	2.48	> 10000	–	2.56	> 10	–
CC(NC(=O)C(Cc1ccccc1)NC(=O)Cc1ccccc1)C(=O)C(=O)NC(Cc1ccccc1F)C(=O)NC(Cc1ccc(-c2ccccc2)cc1)C(N)=O (stereo not shown) [PHELIX263, N-(1-((3-([1,1′-biphenyl]-4-yl)-1-amino-1-oxopropan-2-yl)amino)-3-(2-fluorophenyl)-1-oxopropan-2-yl)-2-oxo-3-(3-phenyl-2-(2-phenylacetamido)propanamido)butanamide]	0.06	> 10000	–	0.99	0.6	–
CC(NC(=O)C(Cc1ccccc1)NC(=O)Cc1ccccc1)C(=O)C(=O)NC(Cc1cccc(C(F)(F)F)c1)C(=O)NC(Cc1ccc(-c2ccccc2)cc1)C(N)=O (stereo not shown) [PHELIX264, N-(1-((3-([1,1′-biphenyl]-4-yl)-1-amino-1-oxopropan-2-yl)amino)-1-oxo-3-(3-(trifluoromethyl)phenyl)propan-2-yl)-2-oxo-3-(3-phenyl-2-(2-phenylacetmido)propanamido)butanamide]	1.91	> 10000	–	2.68	> 10	–
CC(NC(=O)C(Cc1ccccc1)NC(=O)Cc1ccccc1)C(=O)C(=O)NC(Cc1ccccc1C(F)(F)F)C(=O)NC(Cc1ccc(-c2ccccc2)cc1)C(N)=O (stereo not shown) [PHELIX265, N-(1-((3-([1,1′-biphenyl]-4-yl)-1-amino-1-oxopropan-2-yl)amino)-1-oxo-3-(2-(trifluoromethyl)phenyl)propan-2-yl)-2-oxo-3-(3-phenyl-2-(2-phenylacetamido)propanamido)butanamide]	302	> 10000	–	2.2	> 10	–
CC(NC(=O)C(Cc1ccccc1)NC(=O)Cc1ccccc1)C(=O)C(=O)NC(Cc1cccc(F)c1)C(=O)NC(Cc1ccc(-c2ccccc2)cc1)C(N)=O (stereo not shown) [PHELIX266, N-(1-((3-([1,1′-biphenyl]-4-yl)-1-amino-1-oxopropan-2-yl)amino)-3-(3-fluorophenyl)-1-oxopropan-2-yl)-2-oxo-3-(3-phenyl-2-(2-phenylacetamido)propanamido)butanamide]	0.14	> 10000	–	0.78	> 10	–
CCC(C)C(NC(=O)C(CC(C)C)NC(=O)C(Cc1ccccc1)NC(=O)OCc1ccccc1)C(=O)C(=O)NC(CCCNC(=N)N)C(N)=O (stereo not shown) [PHELIX268, benzyl (1-amino-10-(sec-butyl)-6-carbamoyl-1-imino-13-isobutyl-8,9,12,15-tetraoxo-17-phenyl-2,7,11,14-tetraazaheptadecan-16-yl)carbamate]	0.95	10.6	–	> 30	0.171	–
C=CCOC(=O)NCCCCC(NC(=O)C(=O)C(NC(=O)C(CC(C)C)NC(=O)C(Cc1ccccc1)NC(=O)OCc1ccccc1)C(C)CC)C(N)=O (stereo not shown) [PHELIX269, benzyl (15-(sec-butyl)-11-carbamoyl-18-isobutyl-5,13,14,17,20-pentaoxo-22-phenyl-4-oxa-6,12,16,19-tetraazadocos-1-en-21-yl)carbamate]	4.13	4.34	–	> 30	0.763	–
